Measured values published in patent US12560588B2, “High-efficiency screening method for RNA-targeting drugs using nanopores” (KOREA RESEARCH INSTITUTE OF BIOSCIENCE AND BIOTECHNOLOGY, priority 2020, dated 2026).

How the values were obtained:
ARS = experiment: 1D CPMG ligand-observed NMR; conditions: absence vs presence of ARS
5′L-iav-RNA = format: binding, influenza A virus
3′L-iav-RNA = format: binding, influenza A virus
[1] = tested on: adenine-sensing riboswitch (ARS); experiment: α-hemolysin nanopore measurement of ARS with ligand; format: binding, Vibrio vulnificus; conditions: for dwell time relative to free ARS: type-II translocation event, individual compounds
Experimental: RNAs were synthesized by Integrated DNA Technologies (Coralville, IA, USA). All RNAs were dialyzed against 10 mM potassium phosphate (pH 6.2) buffer for at least 12 hours. After heating RNAs at 95° C. for 5 minutes, it was cooled quickly in the ice and annealed. The nanopore experiment was performed at RNA concentration of 10 to 500 nm. α-hemolysin (α-HL) protein was purchased from List Biological Laboratories Inc. (CAMPBELL, CA, USA). 1,2-diphytanoylsn-glycero-3-phosphocholine(DPhPC) was purchased from Avanti Polar Lipids (Alabaster, Al, USA).
Specifically, in the buffer containing 10 mM potassium phosphate (pH 6.2), 2 mM MgCl2 and 1M KCl, free ARS or ARS-adenine complex was added to the cis face of a lipid bilayer with a single α-HL nanopore. If the voltage of (+) 100 mV is applied on the nanopore, the free ARS or the ARS-adenine complex is driven by electrophoresis to block the ion current. The nanopore events of the free ARS and ARS-adenine complex were statistically analyzed (a to c in FIG. 2).
The average I/I0 value of level 1 (III1) of the type-II event is 0.45, which corresponds to about 50% of level 2 (III2). After separating the types I and II nanopore events of the complex, each type of event was statistically analyzed. The type I and II events of the ARS-adenine complex is different in the average value and dwell time of I/I0 ((b) to (c) in FIG. 3).

[2] = tested on: PreQ1-sensing riboswitch (PreQ1 rs); experiment: α-hemolysin nanopore measurement of PreQ1 rs with PreQ1; format: binding
Experimental: The PreQ1 rs is synthesized by Integrated DNA Technologies (Coralville, IA, USA). The PreQ1 rs used in the test was designed by adding GG sequences to the 5′ end of the 34nt basic aptamer sequences for the ease of secondary verification (NMR analysis, etc.) of the riboswitch structural change by binding of the PreQ1 ligand. The PreQ1 rs RNAs were dialyzed against 10 mM potassium phosphate (pH 6.2) buffer for at least 12 hours. After heating RNAs at 95° C. for 5 minutes, it was cooled quickly in the ice and annealed. All nanopore tests were performed at 500 nM concentration.
Specifically, in the buffer containing 10 mM potassium phosphate (pH 6.2) and 1M KCl, 500 nM of free PreQ1 rs was added to the cis face of a lipid bilayer with the α-HL nanopore. It was observed that the PreQ1 rs was driven by electrophoresis to block the ion current if the (+) voltage was applied on the nanopore.
Since then, to confirm whether the interaction of ligands can be detected at a single molecule level, the PreQ1 rs-PreQ1 complex was added to the cis face of the lipid bilayer with the nanopore in the buffer containing 10 mm phosphate (pH 6.2) and 1M KCl. When the (+) voltage is applied to the nanopore, the ion current is blocked as the PreQ1 rs-PreQ1 complex enters the nanopore by electrophoresis. In the current blockade event of the PreQ1 rs-PreQ1 complex, both type A and type B events were observed, and active nanopore current traces were confirmed (FIG. 17, bottom panel).

TPP riboswitch (TRS) = format: binding
[3] = tested on: adenine-sensing riboswitch (ARS); experiment: 1D 1H NMR of ARS with adenine; conditions: high salt concentration (1M KCl)

Question: For `Oc1cc(O)c2c(c1)O[C@H](c1ccc(O)c(O)c1)[C@H](O)C2` [(−)-epicatechin], which “binding to ARS by 1D CPMG” value (ARS) is on record?
Answer: non-binding

Question: `Nc1ncnc2c1ncn2[C@@H]1O[C@H](COP(=O)(O)OP(=O)(O)OP(=O)(O)O)[C@@H](O)[C@H]1O` [ATP] was tested. Which “binding to ARS by 1D CPMG” value (ARS) did it give?
Answer: non-binding

Question: Which results are given for `COc1cc2nc(N3CCNCC3)nc(N)c2cc1OC` [DPQ, 6,7-dimethoxy-2-(1-piperazinyl)-4-quinazolinamine]?
Answer: average nanopore dwell time (5′L-iav-RNA): 1.14 ms; dwell time (5′L-iav-RNA): 1.47 ms; nanopore average dwell time (3′L-iav-RNA): 9.52 ms

Question: How did the “nanopore event type observed” value ([1]; ARS with ligand) turn out when `O=C(/C=C/c1ccc(O)c(O)c1)O[C@@H]1[C@H](O)C[C@@](O)(C(=O)O)C[C@H]1OC(=O)/C=C/c1ccc(O)c(O)c1` [NC1, 3,4-dicaffeoylquinic acid] was run?
Answer: types II translocation event

Question: What about the “dwell time relative to free ARS” value [1] of the same compound?
Answer: more than twice

Question: And the “binding to ARS by 1D CPMG” value (ARS)?
Answer: definite binding

Question: Which results are given for `O=C(/C=C/c1ccc(O)c(O)c1)O[C@H]1[C@H](O)C[C@](O)(C(=O)O)C[C@H]1OC(=O)/C=C/c1ccc(O)c(O)c1` [NC2, 4,5-dicaffeoylquinic acid]?
Answer: nanopore event type observed ([1]; ARS with ligand): types II translocation event; dwell time relative to free ARS [1]: more than twice; binding to ARS by 1D CPMG (ARS): definite binding

Question: For `O=C(O)[C@H]1O[C@@H](Oc2cc(O)c3c(=O)cc(-c4ccc(O)c(O)c4)oc3c2)[C@H](O)[C@@H](O)[C@@H]1O` [NC4, luteolin-7-glucuronide], which “nanopore event type observed” value ([1]; ARS with ligand) is on record?
Answer: types II translocation event

Question: What about the “dwell time relative to free ARS” value [1] of the same compound?
Answer: more than twice

Question: And the “binding to ARS by 1D CPMG” value (ARS)?
Answer: definite binding

Question: How did the “type A event rate” value ([2]; PreQ1 rs-PreQ1 complex) turn out when `NCC1C=Nc2nc(N)[nH]c(=O)c21` (stereo not shown) [PreQ1, 7-aminomethyl-7-deazaguanine] was run?
Answer: 26.5%

Question: What about the “type B event rate” value ([2]; PreQ1 rs-PreQ1 complex) of the same compound?
Answer: 73.5%

Question: What about the “type B event rate increase versus free PreQ1 rs” value ([2]; ligand-bound state) of the same compound?
Answer: about 1.5 times

Question: Which average dwell time (TPP riboswitch (TRS)) does the source give for `Cc1ncc(C[n+]2csc(CCO[P@](=O)(O)OP(=O)(O)O)c2C)c(N)n1` [TPP, thiamine pyrophosphate] here?
Answer: 0.22 ms

Question: What about the “dwell time of type-I event” value (TPP riboswitch (TRS)) of the same compound?
Answer: 0.21 ms

Question: What about the “dwell time of type-II event” value (TPP riboswitch (TRS)) of the same compound?
Answer: 4.37 ms

Question: And the “type-II dwell time increase versus free TRS” value (TPP riboswitch (TRS))?
Answer: 1.3 times

Question: What about the type-II event rate (TPP riboswitch (TRS)) of the same compound?
Answer: 14.3%

Question: And the “type-II event rate increase versus free TRS” value (TPP riboswitch (TRS))?
Answer: 1.6 times

Question: Which “nanopore event type observed” value ([1]; ARS with ligand) does the source give for `Nc1ncnc2nc[nH]c12` [adenine] here?
Answer: mixture of the type I and type-II events

Question: What about the “average dwell time (td)” value ([1]; ARS with ligand, all events, +100 mV, 1M KCl) of the same compound?
Answer: 0.63 ms

Question: What about the “dwell time of the type-I event (tI)” value ([1]; ARS-adenine complex) of the same compound?
Answer: 0.28 ms

Question: And the “dwell time of the type-II event (tII)” value ([1]; ARS-adenine complex)?
Answer: 2.14 ms

Question: And the “nanopore dwell time of the type-II event (tII)” value ([1]; adenine added to MIX-3)?
Answer: 2.52 ms

Question: And the “type-II dwell time relative to free ARS” value ([1]; adenine added to MIX-3)?
Answer: up to 6.6 times

Question: And the “type-II dwell time relative to the type-I event” value ([1]; adenine-bound ARS)?
Answer: 7.64 times

Question: What about the “binding to ARS by imino proton peaks” value [3] of the same compound?
Answer: bound

Question: `NCCCS(=O)(=O)O` [tramiprosate] was tested. Which “binding to ARS by 1D CPMG” value (ARS) did it give?
Answer: non-binding

Question: Which “average nanopore dwell time” value (5′L-iav-RNA) does the source give for Neomycin here?
Answer: 3.48 ms

Question: What about the “dwell time increase versus free viral RNA” value (5′L-iav-RNA) of the same compound?
Answer: about 8.1 times
